Laboratory results taken from patent US20210337817A1, “COMPOUNDS AND FORMULATIONS FOR PROTECTIVE COATINGS” (Apeel Technology, Inc., priority 2018, published 2021).
“Also recorded” adds a separate entry of the source.

Tests used:
[1] = Contact angle on paraffin wax, direct or primed surface; format: physicochemical; conditions: paraffin wax primed with CA-1G 3 mg/mL in water and dried, then pure water drops
Protocol: For bar 1601, the solvent was pure water. […] The mixture corresponding to bar 1603 was the same as that of bar 1602 but also included 3 mg/mL of CA-1G. For bar 1604, a mixture of CA-1G at a concentration of 3 mg/mL in water was first deposited on the surface of the paraffin wax and then allowed to dry in order to prime the surface. Afterward, the contact angle of water on the primed surface was determined. For bar 1605, a mixture of CA-1G at a concentration of 3 mg/mL in water was first deposited on the surface of the paraffin wax and then allowed to dry in order to prime the surface. Afterward, the contact angle of a mixture of SA-1G and SA-Na at a mass ratio of 95:5 dispersed in water at a concentration of 45 mg/mL on the primed surface was determined.

[2] = test system: finger limes; test: Average daily mass loss rate of coated finger limes; conditions: coating agent 10 mg/mL in ethanol, 23-27° C., humidity 40-55%, untreated 5.3%
From the text: As used herein, the “mass loss rate” refers to the rate at which the product loses mass (e.g. by releasing water and other volatile compounds). The mass loss rate is typically expressed as a percentage of the original mass per unit time (e.g. percent per day).
FIG. 1 is a graph showing average daily mass loss rates for finger limes coated with various mixtures of PA-2G and PA-1G measured over the course of several days. Each bar in the graph represents average daily mass loss rates for a group of 24 finger limes. The finger limes corresponding to bar 102 were untreated. The finger limes corresponding to bar 104 were coated with a coating agent that was substantially pure PA-1G. The finger limes corresponding to bar 106 were coated with a coating agent that was about 75% PA-1G and 25% PA-2G by mass. The finger limes corresponding to bar 108 were coated with a coating agent that was about 50% PA-1G and 50% PA-2G by mass. The finger limes corresponding to bar 110 were coated with a coating agent that was about 25% PA-1G and 75% PA-2G by mass. The finger limes corresponding to bar 112 were coated with a coating agent that was substantially pure PA-2G. The coating agents were each dissolved in ethanol at a concentration of 10 mg/mL to form solutions, and the solutions were applied to the surface of the corresponding finger limes to form the coatings. […]

[3] = test system: avocados; test: Skin damage of treated avocados (photograph); conditions: 5 mg/mL in water, no long chain fatty acid esters/salts (FIG. 5)
From the text: Medium chain fatty acids (e.g., having a carbon chain length in a range of 7 to 13) and/or salts or esters thereof can also be used as coating agents to form coatings over produce or other plant matter or agricultural products using the methods described above.
[…] […] Prior to treatment, the avocado skin was virtually entirely green (not shown).

| SMILES | average daily mass loss rate [2] [% per day] | other results |
| --- | --- | --- |
| CCCCCCCCCC(=O)OCC(O)CO (stereo not shown) [CA-1G, 2,3-dihydroxypropan-1-yl decanoate] |  | average contact angle of water on primed surface [1]: 24 ° |
| CCCCCCCCCCCCCCCC(=O)OCC(O)CO (stereo not shown) [PA-1G, 2,3-dihydroxypropan-1-yl palmitate] | 4.3 |  |
| CCCCCCCCCCCCCCCC(=O)OC(CO)CO [PA-2G, 1,3-dihydroxypropan-2-yl palmitate] | 3.7 |  |
| CCCCCCCCCCC(=O)OCC(O)CO (stereo not shown) [UA-1G, 2,3-dihydroxypropan-1-yl undecanoate] |  | skin damage of avocados after treatment [3]: high density of black discolored regions; also recorded: extensive skin damage |
